According to patent US20240245806A1, “TREATMENT OF NEURODEGENERATIVE DISEASE USING CSA- AND INDY-TYPE COMPOUNDS” (BROWN UNIVERSITY, priority 2021, published 2024):
Entries after “also recorded” stand apart in the source; their conditions may differ.

Legend:
zebrafish larvae [1] = assay: Behavioral screen of 190 FDA-approved drugs in 5-day-old zebrafish larvae (activity, optomotor and acoustic responses); type: in vivo, Danio rerio; conditions: 10 μM, 5 dpf larvae, vs DMSO
Text: Zebrafish. The research project has been conducted in accordance with local and federal guidelines for ethical and humane use of animals and has been reviewed and approved by the Brown University Institutional Animal Care and Use Committee. Zebrafish (Danio rerio) embryos were collected and grown to larval stages as previously described. Pelkowski et al., Behav Brain Res 223, 135-144 (2011). Adult wild-type zebrafish are maintained at Brown University as a genetically-diverse outbred strain in a mixed male and female population. […] Embryos and larvae were kept on a 12 hour light/12 hour dark cycle and were randomly assigned to different experimental groups prior to experimental manipulation. The sex of embryos and larvae cannot be determined at such early stages because zebrafish use elusive polygenic factors for sex determination, and both males and females have juvenile ovaries between 2.5 and 4 weeks of development. Zebrafish larvae were imaged at 5 dpf when the larvae display a range of locomotor behaviors and consume nutrients available in the yolk sac. Clift et al., Zebrafish 11, 455-461 (2014). Larvae are approximately 4 mm long at the 5 dpf stage. Pharmacological treatments. Zebrafish larvae were treated with 190 FDA-approved compounds using a Tocris small-molecule library (Tocris Bioscience, Cat. No. 7200). […] Larvae were first treated in a Petri dish for 2 hours, transferred with the treatment solution to white 96-well ProxiPlates (PerkinElmer, 6006290) for 1 hour, and then imaged in the treatment solution for 3 hours. Imaging system. Zebrafish larvae were imaged in an imaging system that holds four 96-well plates for automated analysis of behavior in a 384-well format (FIG. 1). Briefly, the imaging system is housed in a 28.5° C. temperature-controlled cabinet where larvae in white 96-well ProxiPlates are placed onto a glass stage. Above the stage, a high-resolution camera (18-megapixel Canon EOS Rebel T6 with an EF-S 55-250 mm f/4.0-5.6 IS zoom lens) captures an image of the larvae in the four 96-well plates every 6 seconds. The camera is connected to a continuous power supply (Canon ACK-E10 AC Adapter) and controlled by a laptop computer using Canon's Remote Capture software (EOS Utility, version 3), which is included with the camera. Two small speakers (OfficeTec USB Computer Speakers Compact 2.0 System) were attached speaker-side down to the glass stage. Speakers were connected by USB to the laptop computer and set to maximum volume. […] Behavioral assay. Visual and acoustic stimuli are controlled by an automated 3-hour PowerPoint presentation that is shown to the larvae. […] Larvae were not exposed to visual stimuli and acoustic stimuli at the same time. The visual stimuli consisted of a series of moving lines that were red, green or blue. Prior studies have shown that zebrafish larvae will swim in the same direction as moving lines, a behavior that is called an optomotor response or OMR (19, 28). Our previously-developed assays for visually-guided behaviors indicate 5 dpf larvae consistently respond to 1 mm thick lines set 7 mm apart that move 7 mm per 8 seconds downwards or upwards, alternating direction in 10-minute periods (19). Additionally, the presentation included red lines that moved at a faster speed of 7 mm per 0.5 seconds (16× faster). […]

zebrafish larvae [2] = assay: Acute exposure of 5 dpf zebrafish larvae to modulators of calcineurin signaling, automated analysis of behavior; type: in vivo, Danio rerio
Experimental: Zebrafish larvae were treated at 5 dpf with various modulators of calcineurin signaling, starting 3 hours before imaging. The larvae were then imaged for a total of 3 hours using a behavioral assay with various visual and acoustic stimuli (FIG. 6). The behavioral assay started with a 1-hour period without stimuli, followed by 80 minutes with visual stimuli, 10 minutes without visual or acoustic stimuli, and 30 minutes with acoustic stimuli. Values of activity (% move) and position (% up) were averaged in individual larvae during 10-minute periods, for a total of 18 periods. These values were subsequently averaged between larvae in the same treatment group. We examined a total of 10 treatment groups. For clarity, only 3 treatment groups were graphed (FIG. 6), but all 10 treatment groups were analyzed in detail as shown in subsequent figures. […] The assay provides quantitative information on activity, visually-guided behaviors and acoustic startle responses.
To determine if larval zebrafish behavior is affected by modulation of calcineurin signaling, we imaged 5 day-old larvae in the following 10 treatment groups: 10 μM cyclosporine A (CsA), 1 μM tacrolimus (FK506), 5 or 10 μM proINDY, a combination of CsA+5 or 10 μM proINDY, or a combination of FK506+5 or 10 μM proINDY, DMSO as a vehicle control, and 1 μM rapamycin as a control for target specificity. Rapamycin and FK506 are both macrolide immunosuppressants with similar structures, however, rapamycin affects Target of Rapamycin (TOR) signaling instead of calcineurin signaling. Vellanki et al., Front Mol Biosci 7, 588913 (2020). The concentrations of CsA, FK506 and rapamycin were selected based on prior studies in zebrafish embryos and larvae. Clift et al., Behav Brain Res 282, 117-124 (2015). The two concentrations of proINDY, a membrane-permeable form of INDY (inhibitor of DYRK), were selected based on studies in cell lines and Xenopus embryos. Ogawa et al., Nat Commun 1, 86 (2010).
The research project has been conducted in accordance with local and federal guidelines for ethical and humane use of animals and has been reviewed and approved by the Brown University Institutional Animal Care and Use Committee. Zebrafish (Danio rerio) embryos were collected and grown to larval stages as previously described. Thorn et al., Sci Rep 9, 13989 (2019). Adult wild-type zebrafish are maintained at Brown University as a genetically-diverse outbred strain in a mixed male and female population. Zebrafish embryos from 0-3 days post-fertilization (dpf) and zebrafish larvae from 3-5 dpf were maintained at 28.5° C. in 2 L culture trays with egg water, containing 60 mg/L sea salt (Instant Ocean) and 0.25 mg/L methylene blue in deionized water. Embryos and larvae were kept on a 12 hour light/12 hour dark cycle and were randomly assigned to different experimental groups prior to experimental manipulation. The sex of embryos and larvae cannot be determined at such early stages because zebrafish use elusive polygenic factors for sex determination, and both males and females have juvenile ovaries between 2.5 and 4 weeks of development. Zebrafish larvae were imaged at 5 dpf when the larvae display a range of locomotor behaviors and consume nutrients available in the yolk sac. Larvae are approximately 4 mm long at the 5 dpf stage.
Cyclosporine (cyclosporin A, Enzo Life Sciences), FK506 (tacrolimus, Enzo Life Sciences), rapamycin (Santa Cruz Biotechnology) and proINDY (Tocris Bioscience) were diluted in egg water from 1000× stocks dissolved in dimethyl sulfoxide (DMSO). DMSO (1 μl/ml DMSO) was added to the single treatments and the corresponding DMSO concentration was used as a vehicle control for all solutions. Larvae were exposed at 5 dpf to treatment solutions or DMSO for a total of 6 hours. Larvae were first treated in a Petri dish for 2 hours, transferred with the treatment solution to white 96-well ProxiPlates (PerkinElmer, 6006290) for 1 hour, and then imaged in the treatment solution for 3 hours. […]

[3] = tested on: zebrafish embryos and larvae; assay: Developmental exposure (2-3, 3-4 or 4-5 dpf) of zebrafish to modulators of calcineurin signaling, behavior imaged at 5 dpf; type: in vivo
Experimental: Zebrafish. Adult wild type zebrafish (Danio rerio) are maintained at Brown University as a genetically-diverse outbred strain in a mixed male and female population. Zebrafish embryos were collected and grown to larval stages as described previously. Thorn et al., Sci Rep 9, 13989 (2019). Embryos from 0-3 days post-fertilization (dpf) and larvae from 3-5 dpf were kept on a 12 hour light/12 hour dark cycle at 28.5° C. in 2 L culture trays with egg water, containing 60 mg/L sea salt (Instant Ocean) and 0.25 mg/L methylene blue in deionized water. Zebrafish embryos and larvae were randomly assigned to different experimental groups prior to experimental manipulation. The sex of embryos and larvae cannot be determined at such early stages because zebrafish use elusive polygenic factors for sex determination, and both males and females have juvenile ovaries between 2.5 and 4 weeks of development. Liew et al., Brief Funct Genomics 13(2), 172-187 (2014). Zebrafish larvae were imaged at 5 dpf when they are approximately 4 mm long, display a range of locomotor behaviors and consume nutrients available in the yolk sac. Clift et al., Zebrafish 11(5), 455-461 (2014).
Pharmacological treatments. Zebrafish embryos and larvae were treated with 10 μM CsA (cyclosporin A, Enzo Life Sciences), 1 μM FK506 (tacrolimus, Enzo Life Sciences), 1 μM rapamycin (Santa Cruz Biotechnology), 5 μM proINDY (Tocris Bioscience) or co-treatments of either 10 μM CsA+5 μM proINDY or 1 μM FK506+5 μM proINDY. […] Clift et al., Behav Brain Res, 282, 117-124 (2015). […] Robinson et al., J Appl Toxicol 37(12), 1438-1447 (2017). […] All administered compounds were diluted in egg water from 1000× stocks dissolved in dimethyl sulfoxide (DMSO). The corresponding DMSO concentration (1 μl DMSO/ml egg water) was used as a vehicle control. Embryos and larvae were treated during one of the following developmental stages: 2-3, 3-4, or 4-5 dpf. The embryos and larvae were treated in 10 cm Petri dishes for 24 hours, rinsed three times with egg water, and then transferred to new Petri dishes with egg water. Larvae that were treated from 4-5 dpf were rinsed and kept in egg water for 3 hours prior to imaging, typically from 10 am to 1 pm. All treatment groups were imaged at 5 dpf in egg water. For imaging, larvae were transferred to white 96-well ProxiPlates (PerkinElmer, 6006290) and were imaged for 3 hours, typically from 1-4 pm (FIG. 12).
Imaging of zebrafish larvae. Zebrafish larvae were imaged in a 384-well imaging system as described previously. Thorn et al., Sci Rep 9, 13989 (2019). Briefly, four 96-well ProxiPlates were placed on a glass stage inside a temperature-controlled cabinet, set at 28.5° C. The upper shelf of the cabinet holds a high-resolution camera (18-megapixel Canon EOS Rebel T6 with an EF-S 55-250 mm f/4.0-5.6 IS zoom lens), connected to a continuous power supply (Canon ACK-E10 AC Adapter) and controlled by a laptop computer. Images are acquired using Canon's Remote Capture software (EOS Utility, version 3), which is included with the camera. Every 6 seconds, the camera acquires a high-resolution image of larvae in the microplates (FIG. 12). Two small speakers (OfficeTec USB Computer Speakers Compact 2.0 System) are located speaker-side down on the glass stage. Speakers were connected by USB to the laptop computer and set to maximum volume (85 dBA).
Behavioral assay. Larval behaviors were imaged for 3 hours, as described previously. Thorn et al., Sci Rep 9, 13989 (2019). […] The PowerPoint started with a light background for 60 minutes without visual or acoustic stimuli, followed by 80 minutes with visual stimuli, 10 minutes without stimuli, and 30 minutes with acoustic stimuli (FIG. 12). Larvae were not exposed to visual stimuli and acoustic stimuli at the same time. The visual stimuli consisted of a series of lines that moved upwards or downwards in the microplates, in a horizontal plane. […]

[4] = 5 μM proINDY, 5 dpf acute, vs DMSO
[5] = 5 dpf acute exposure, vs DMSO, 10 μM CsA, 1 μM FK506, 1 μM rapamycin, proINDY

Row | Structure (SMILES) | activity (zebrafish larvae [1]) | excitability (E) in response to acoustic stimuli at 1-second intervals (zebrafish larvae [1]) | optomotor response (OMR) (zebrafish larvae [1]) | early activity (first hour of imaging) (zebrafish larvae [2]; [4]) | late activity (period 15) (zebrafish larvae [2]; [4]) | late activity (period 15) (zebrafish larvae [2]; 10 μM proINDY, 5 dpf acute, vs DMSO) | optomotor response (OMR) (zebrafish larvae [2]; 5 dpf acute exposure, vs DMSO) | early activity (first hour of imaging) (zebrafish larvae [2]; [5]) | late activity (period 15) (zebrafish larvae [2]; [5]) | activity (zebrafish larvae [2]; 5 dpf acute exposure, vs DMSO, 10 μM CsA, 1 μM FK506, proINDY 5 or 10 μM) | optomotor response to fast red lines (zebrafish larvae [2]; 5 dpf acute, lines 16x faster) | excitability (acoustic stimuli at 1-second intervals) (zebrafish larvae [2]; 5 dpf acute, vs DMSO) | startle responses to acoustic stimuli at 20-second intervals (zebrafish larvae [2]; 5 dpf acute, vs DMSO) | optomotor response to red lines (zebrafish larvae [2]; 5 dpf acute, vs DMSO, proINDY 5 μM) | larval survival ([3]; developmental exposures to 10 μM proINDY) | OMR RGB ([3]; exposure 2-3 dpf) | late activity (period 15) ([3]; exposure 2-3 dpf) | startle responses (20-second interval) ([3]; exposure 3-4 dpf) | OMR RGB ([3]; exposure 4-5 dpf) | late activity (period 15) ([3]; exposure 4-5 dpf)
1 | CCCCC1=NC2(CCCC2)C(=O)N1Cc1ccc(-c2ccccc2-c2nnn[nH]2)cc1 [Irbesartan] | increased activity | did not increase excitability; also recorded: does not increase excitability | decreased optomotor responses |  |  |  |  |  |  |  |  |  |  |  |  |  |  |  |  | 
2 | Brc1c(NC2=NCCN2)ccc2nccnc12 [UK 14,304] | decrease in activity |  | increase in optomotor responses |  |  |  |  |  |  |  |  |  |  |  |  |  |  |  |  | 
3 | CCN1/C(=C/C(C)=O)Sc2ccc(OC(C)=O)cc21 [proINDY, ProINDY] |  |  |  | reduced early and late activity | reduced early and late activity | reduced late activity only | increased optomotor responses; also recorded: increase in the optomotor response | decrease in early activity | decreased activity | decreased activity; also recorded: decrease in activity | increase in the optomotor response | increased excitability | slightly elevated | increased optomotor response | affected larval survival | decrease in OMR RGB | decreased activity | decrease startle responses | decrease in OMR RGB | increased activity
